Drawing on patent US20160168540A1, “COMPOSITION FOR MAINTAINING PLATELET FUNCTION” (KYOTO UNIVERSITY, priority 2013, published 2016), this text covers IC50 for 20 compounds.

This test deals with T1, TACE (ADAM17) (Homo sapiens, UniProt P78536).
T1 construct: made in house; host or cells: mammalian cells or insect cells
Description: TACE (ADAM17) inhibition test. The format is biochemical. As to conditions: fluorescent synthetic substrate, 37° C. for 1.5 hours; read-out: TACE IC50. The essentials: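 Recombinant human TACE (mammalian or insect cell expressed) cleaves Nma-LAQAVRSSK(Dnp)-D-Arg-NH2 quenched substrate, 1.5 h at 37 °C. Fluorescence read at Ex 355/Em 460 nm; IC50 from inhibition vs no-compound control, binned A (<100 nM) or B (≥100 nM).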

T1 sequence (P78536 215-824): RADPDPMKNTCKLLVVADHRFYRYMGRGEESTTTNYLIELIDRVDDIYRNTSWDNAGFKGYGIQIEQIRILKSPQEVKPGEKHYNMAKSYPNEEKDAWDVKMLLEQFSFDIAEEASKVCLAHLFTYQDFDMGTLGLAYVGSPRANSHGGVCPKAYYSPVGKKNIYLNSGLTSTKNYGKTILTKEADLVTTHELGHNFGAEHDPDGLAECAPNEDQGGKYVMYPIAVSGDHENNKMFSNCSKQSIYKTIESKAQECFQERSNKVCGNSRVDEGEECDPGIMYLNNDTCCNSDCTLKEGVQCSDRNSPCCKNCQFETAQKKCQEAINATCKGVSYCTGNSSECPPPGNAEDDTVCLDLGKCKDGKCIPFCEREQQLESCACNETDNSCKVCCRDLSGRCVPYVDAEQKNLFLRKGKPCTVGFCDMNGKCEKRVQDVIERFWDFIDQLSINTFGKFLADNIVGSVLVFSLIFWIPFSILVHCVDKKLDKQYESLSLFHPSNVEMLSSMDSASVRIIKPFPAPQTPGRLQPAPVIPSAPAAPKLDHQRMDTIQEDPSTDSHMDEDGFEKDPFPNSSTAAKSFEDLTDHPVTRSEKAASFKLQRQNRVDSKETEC

With `Cc1cccn(CC2(c3cccnc3)NC(=O)NC2=O)c1=O` (racemic) [Compound I-8, 5-[(3-methyl-2-oxopyridin-1(2H)-yl)methyl]-5-(pyridin-3-yl)imidazolidine-2,4-dione], the IC50 is under 100 nM.
As to `Cc1cccn(CC2(c3ccc(Cc4ccc(Cl)cc4)cc3)NC(=O)NC2=O)c1=O` (racemic) [Compound I-130], the half-inhibitory concentration (IC50) is under 100 nM.
On to `O=C1NC(=O)C(Cn2ccccc2=O)(c2ccccc2)N1` (racemic) [Compound I-46, 5-[(2-oxopyridin-1(2H)-yl)methyl]-5-phenylimidazolidine-2,4-dione], for which the IC50 is under 100 nM.
In the case of `Cc1cccn(CC2(c3ccc(OC(F)(F)F)cc3)NC(=O)NC2=O)c1=O` (racemic) [Compound I-79], the IC50 was under 100 nM.
On to `Cc1cccn(CC2(c3ccc(-c4ccncc4)cc3)NC(=O)NC2=O)c1=O` (racemic) [Compound I-31, 5-[(3-methyl-2-oxopyridin-1(2H)-yl)methyl]-5-[4-(pyridin-4-yl)phenyl]imidazolidine-2,4-dione], for which the IC50 was under 100 nM.
Take `O=C1NC(=O)C(Cn2cccc(Cl)c2=O)(c2cc3ccccc3o2)N1` (racemic) [Compound I-51, 5-(benzofuran-2-yl)-5-[(3-chloro-2-oxopyridin-1(2H)-yl)methyl]imidazolidine-2,4-dione]: the IC50 is under 100 nM.
Under `Cc1cccn(CC2(c3ccc4c(c3)CCCO4)NC(=O)NC2=O)c1=O` (racemic) [Compound I-26, 5-(chroman-6-yl)-5-[(3-methyl-2-oxopyridin-1(2H)-yl)methyl]imidazolidine-2,4-dione] stands under 100 nM; under `O=C1NC(=O)C(Cn2ccccc2=O)(c2ccc(F)c(F)c2)N1` (racemic) [Compound I-155], under 100 nM.
On to `Cc1noc(C)c1-c1ccc(C2(Cn3cccc(C)c3=O)NC(=O)NC2=O)cc1` (racemic) [Compound I-90], for which the IC50 is under 100 nM.
Regarding `COCOc1ccc(C2(Cn3cccc(C)c3=O)NC(=O)NC2=O)cc1` (racemic) [Compound I-13, 5-[4-(methoxymethoxy)phenyl]-5-[(3-methyl-2-oxopyridin-1(2H)-yl)methyl]imidazolidine-2,4-dione], the IC50 is under 100 nM.
Then `N#Cc1ccc(C2(Cn3cccc(F)c3=O)NC(=O)NC2=O)cc1` (racemic) [Compound I-134], with under 100 nM; and `Cc1cccn(CC2(c3ccc(C#CC(C)(C)C)cc3)NC(=O)NC2=O)c1=O` (racemic) [Compound I-33, 5-[4-(3,3-dimethylbut-1-yn-1-yl)phenyl]-5-[(3-methyl-2-oxopyridin-1(2H)-yl)methyl]imidazolidine-2,4-dione], with under 100 nM.
Consider `Cc1cccn(CC2(c3ccccn3)NC(=O)NC2=O)c1=O` (racemic) [Compound I-7, 5-[(3-methyl-2-oxopyridin-1(2H)-yl)methyl]-5-(pyridin-2-yl)imidazolidine-2,4-dione], for which the IC50 is under 100 nM.
`Cc1cccn(CC2(c3ccc(C(F)(F)F)cc3)NC(=O)NC2=O)c1=O` (racemic) [Compound I-89]: the IC50 is under 100 nM.
For the compound `O=C1NC(=O)C(Cn2cccc(Br)c2=O)(c2ccccc2)N1` (racemic) [Compound I-139], the IC50 is under 100 nM.
Under `O=C1NC(=O)C(Cn2cccc(CO)c2=O)(c2ccc(F)c(F)c2)N1` (racemic) [Compound I-148] stands at least 100 nM; under `Cc1cccn(CC2(c3ccc(F)c(F)c3)NC(=O)NC2=O)c1=O` (racemic) [Compound I-10, 5-(3,4-difluorophenyl)-5-[(3-methyl-2-oxopyridin-1(2H)-yl)methyl]imidazolidine-2,4-dione], under 100 nM.
With `COc1cc(C2(Cn3cccc(C)c3=O)NC(=O)NC2=O)cc(F)c1F` (racemic) [Compound I-127], the IC50 is under 100 nM.
For the compound `Cc1cccc(Oc2ccc(C3(Cn4cccc(C)c4=O)NC(=O)NC3=O)cc2)c1` (racemic) [Compound I-80], the IC50 is under 100 nM.
For `Cc1cccn(CC2(c3ccc(Oc4cccc(F)c4)c(F)c3)NC(=O)NC2=O)c1=O` (racemic) [Compound I-112], the IC50 is under 100 nM.
